Target: T1, EaDAcT (Euonymus alatus diacylglycerol acetyltransferase) (Euonymus alatus, UniProt D6NSS8)
T1 construct: gene DAcT; full-length ORF in microsomes of S. cerevisiae H1246 (quadruple knockout); C-terminal HA tag printed for the pESC-URA coexpression construct; N-terminus MDAHQEIK translated from printed primer
Experiment: microsomal acyltransferase assay, ESI-MS quantification of sn-3 acyl TAG
Assay type: biochemical
Settings: acyl donor 50 to 1500 uM, endogenous sn-1,2-DAG as acceptor, pH 7.5, 30 C

T1 sequence (D6NSS8 entry or part of it): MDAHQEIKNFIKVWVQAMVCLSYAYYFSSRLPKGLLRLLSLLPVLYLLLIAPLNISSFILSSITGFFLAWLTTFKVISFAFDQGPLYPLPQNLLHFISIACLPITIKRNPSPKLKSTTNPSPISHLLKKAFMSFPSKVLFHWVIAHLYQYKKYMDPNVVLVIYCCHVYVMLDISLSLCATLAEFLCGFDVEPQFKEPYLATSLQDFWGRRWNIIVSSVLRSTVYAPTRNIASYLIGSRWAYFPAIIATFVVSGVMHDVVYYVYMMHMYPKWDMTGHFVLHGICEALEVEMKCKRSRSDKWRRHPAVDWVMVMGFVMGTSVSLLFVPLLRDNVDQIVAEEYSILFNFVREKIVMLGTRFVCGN

| SMILES | microsomal acyltransferase assay, ESI-MS quantification of sn-3 acyl TAG ([1,2-13C] labelled compound) | microsomal acyltransferase assay, ESI-MS quantification of sn-3 acyl TAG (unlabelled) |
| --- | --- | --- |
| CC(=O)SCCNC(=O)CCNC(=O)[C@H](O)C(C)(C)COP(=O)(O)OP(=O)(O)OC[C@H]1O[C@@H](n2cnc3c(N)ncnc32)[C@H](O)[C@@H]1OP(=O)(O)O [acetyl-CoA] | higher rates of production formation were always achieved with acetyl-CoA compared with butyryl- or hexanoyl-CoA | – |
| CCCC(=O)SCCNC(=O)CCNC(=O)[C@H](O)C(C)(C)COP(=O)(O)OP(=O)(O)OC[C@H]1O[C@@H](n2cnc3c(N)ncnc32)[C@H](O)[C@@H]1OP(=O)(O)O [butyryl-CoA] | – | Reaction rates with butyryl-CoA and hexanoyl-CoA were relatively similar to one another |

Source: PMC5100001, “Defining the extreme substrate specificity of Euonymus alatus diacylglycerol acetyltransferase, an unusual membrane-bound O-acyltransferase” (Bioscience Reports, 2016)
